{
  "source": "patent US11077126B2",
  "about": "(priority 2017, dated 2021)",
  "key": {"[1]": {"test_system": "transplanted tumor of human leukemia HL-60 cells", "assay": "Human leukemia in nude mice model", "details": "HL-60 nude mice; 30 mg/kg i.g. 30 d", "description": "(§1) HL-60 cells in a logarithmic growth phase were taken and subjected to a trypan blue exclusion experiment showing that the cell viability was more than 95%, then the cells were subjected to trypsinization, centrifugation, and supernatant removal. Then cell concentration was adjusted to 1×10^7/ml with matrigel, and then each nude mouse was inoculated subcutaneously with 0.2 ml of cells at its right armpit and recorded as the first day of inoculation. […] Each group was continuously administered intragastrically for 30 days with a dose of 20 ml/kg. The mice were sacrificed the next day after drug withdrawal and the indicators were tested. The long diameter and short diameter of the tumor, and the body weight of each mouse were recorded every 3 days from drug administration to nude mouse sacrifice.\n(§2) The body weight of the nude mice and the long diameter (a) and short diameter (b) of the transplanted tumor were measured every 3 days, and the tumor volume (v), relative tumor volume (RTV) and relative tumor proliferation rate (T/C) are calculated respectively according to the following formulas, wherein V=a×b^2/2; RTV=V/V0 (V0 is the tumor volume before administration, V is the tumor volume before sacrifice), and T/C (%)=treatment group RTV/model control group RTV×100%.\n(§3) Each mouse was weighed and sacrificed. After the tumor was completely stripped off from the body of the mouse, the non-tumor tissues such as blood stains and fat were removed to weigh the tumor and calculate the tumor growth inhibition rate. The average tumor weight of each group of mice is used as an indicator of efficacy. Tumor growth inhibition rate (%)=(1−the average tumor weight of the treatment group/the average tumor weight of the model group)×100%."}, "[2]": {"test_system": "transplanted tumor of human renal clear cell adenocarcinoma 786-O cells", "assay": "Human renal clear cell adenocarcinoma in nude mice model", "details": "786-O nude mice; 30 mg/kg i.g. 30 d", "description": "as §1, with “786-O” for “HL-60”\nas §2, §3"}, "[3]": {"test_system": "thymus and spleen of Lewis lung cancer tumor-bearing mice", "assay": "Thymus index and spleen index of Lewis lung cancer tumor-bearing mice", "format": "in vivo, C57BL/6 mouse", "description": "After the tumor-bearing mice are sacrificed, the spleen and thymus are weighed, and the spleen index and thymus index are calculated."}, "[4]": {"test_system": "transplanted tumor of human glioma U251 cells", "assay": "Human glioma in nude mice model", "details": "30 mg/kg i.g. 30 d", "description": "Then matrigel cell concentration was adjusted to 1×10^7/ml with matrigel, and then each nude mouse was inoculated subcutaneously with 0.2 ml of cells at its right armpit and recorded as the first day of inoculation. […] Each group was continuously administered intragastrically for 30 days with a dose of 20 ml/kg. The mice were sacrificed the next day after drug withdrawal and the indicators were tested. The long diameter and short diameter of tumor, and the body weight of each mouse were recorded every 3 days from drug administration to nude mouse sacrifice.\nas §2, §3"}, "[5]": {"test_system": "spleen lymphocytes (ConA, LPS stimulation)", "assay": "Spleen lymphocyte proliferation activity of Lewis lung cancer tumor-bearing mice", "format": "in vivo, C57BL/6 mouse", "description": "The serum-free RPMI 1640 medium was placed in a dish, and then the dish was placed on ice. The spleen was aseptically taken and gently ground with a sterile glass slide to prepare a single cell suspension. The single cell suspension was filtered with a double-layer sterile gauze, washed twice with serum-free RPMI 1640 medium, and centrifuged at 1,500 rpm for 5 min to remove the obtained supernatant. 2 mL of red blood cell lysate was added to the treated suspension, the mixture was allowed to stand for 2 min, and then 8 mL of RPMI 1640 medium was added, centrifuging was performed at 1,500 rpm for 5 min to remove the obtained supernatant, and then washing was performed twice with the RPMI 1640 medium. Trypan blue staining was performed to count the number of live cells, and the cell viability was more than 95%. A single cell suspension was prepared by using a RPMI 1640 medium containing 10% fetal bovine serum.\nThe spleen cell suspension was taken, and the cell density was adjusted to 1×10^7/mL. Each mouse was set with: A. a control well: 100 μL of RPMI 1640 medium was added; B. a concanavalin A (ConA) stimulation well: 100 μL (10 mg/L) of concanavalin A (ConA) solution was added; and C. a bacterial endotoxin (LPS) stimulating well: 100 μL (20 mg/L) of bacterial endotoxin (LPS) solution was added. The above cells were added to a 96-well plate, and then 100 μL of spleen cell suspension was added to each of the above wells. After the culture plate was transferred to a saturated humidity condition with a volume fraction of 5% CO2 at 37° C. for incubation for 72 h, 10 μL of MTT solution (5 g/L) was added to each well, and incubation was continued to be performed for 4 hours under the same conditions, then the culture was terminated. […] The Optical Density (OD) of each well was measured at 570 nm, and the lymphocyte proliferation rate was calculated. Lymphocyte proliferation rate (%)=[(T−C)/C]×100%, wherein T is the Optical Density of the stimulation well, and C is the Optical Density of the control well."}, "[6]": {"details": "26 mg/kg, positive drug group, n = 6"}},
  "data": [
    {"compound": "O=P1(N(CCCl)CCCl)NCCCO1", "note": "(stereo not drawn) [Cyclophosphamide]", "values": [
      {"measurement": "Body Weight (g)(d1)", "setting": "[1]", "result": "22.66 ± 1.11", "unit": "g"},
      {"measurement": "Body Weight (g)(d30)", "setting": "[1]", "result": "20.52 ± 1.73", "unit": "g"},
      {"measurement": "Inhibition Rate (%)", "setting": "[1]", "result": 81.37, "unit": "%"},
      {"measurement": "Relative Tumor Proliferation Rate(T/C)", "setting": "[1]", "result": 58.63, "unit": "%"},
      {"measurement": "Relative Tumor Volume (RTV)", "setting": "[1]", "result": "6.76 ± 2.53"},
      {"measurement": "Tumor Volume (mm3) (d1)", "setting": "[1]", "result": "209.22 ± 50.12", "unit": "mm3"},
      {"measurement": "Tumor Volume (mm3) (d30)", "setting": "[1]", "result": "1415.16 ± 320.21", "unit": "mm3"},
      {"measurement": "Tumor Weight", "setting": "[1]", "result": "1.46 ± 0.24", "unit": "g"},
      {"measurement": "Body Weight (g)(d1)", "setting": "[2]", "result": "21.57 ± 1.31", "unit": "g"},
      {"measurement": "Body Weight (g)(d30)", "setting": "[2]", "result": "20.39 ± 1.02", "unit": "g"},
      {"measurement": "Inhibition Rate (%)", "setting": "[2]", "result": 71.36, "unit": "%"},
      {"measurement": "Relative Tumor Proliferation Rate(T/C)", "setting": "[2]", "result": 19.93, "unit": "%"},
      {"measurement": "Relative Tumor Volume (RTV)", "setting": "[2]", "result": "3.34 ± 0.68"},
      {"measurement": "Tumor Volume (mm3) (d1)", "setting": "[2]", "result": "181.48 ± 31.63", "unit": "mm3"},
      {"measurement": "Tumor Volume (mm3) (d30)", "setting": "[2]", "result": "606.14 ± 14.34", "unit": "mm3"},
      {"measurement": "Tumor Weight", "setting": "[2]", "result": "0.62 ± 0.17", "unit": "g"},
      {"measurement": "Spleen Index (%)", "setting": "[3]; [6]", "result": "0.41 ± 0.12", "unit": "%"},
      {"measurement": "Thymus Index (%)", "setting": "[3]; [6]", "result": "0.12 ± 0.09", "unit": "%"},
      {"measurement": "spleen index compared with the control group", "setting": "[3]; Lewis lung cancer tumor-bearing mice, cyclophosphamide, P<0.01", "result": "significantly lower"},
      {"measurement": "Body Weight (g)(d1)", "setting": "[4]", "result": "22.24 ± 1.53", "unit": "g"},
      {"measurement": "Body Weight (g)(d30)", "setting": "[4]", "result": "19.92 ± 1.68", "unit": "g"},
      {"measurement": "Inhibition Rate (%)", "setting": "[4]", "result": 79.74, "unit": "%"},
      {"measurement": "Relative Tumor Proliferation Rate(T/C)", "setting": "[4]", "result": 56.84, "unit": "%"},
      {"measurement": "Relative Tumor Volume (RTV)", "setting": "[4]", "result": "5.75 ± 1.22"},
      {"measurement": "Tumor Volume (mm3) (d1)", "setting": "[4]", "result": "98.40 ± 25.25", "unit": "mm3"},
      {"measurement": "Tumor Volume (mm3) (d30)", "setting": "[4]", "result": "566.33 ± 39.32", "unit": "mm3"},
      {"measurement": "Tumor Weight", "setting": "[4]", "result": "0.42 ± 0.10", "unit": "g"},
      {"measurement": "B Lymphocyte Proliferation Activity (%)", "setting": "[5]; [6]", "result": "11.63 ± 4.68", "unit": "%"},
      {"measurement": "T Lymphocyte Proliferation Activity (%)", "setting": "[5]; [6]", "result": "13.24 ± 3.72", "unit": "%"},
      {"measurement": "lymphocyte activity (proliferation)", "setting": "[5]; Lewis lung cancer tumor-bearing mice, cyclophosphamide, P<0.05", "result": "significantly inhibited"}
    ]}
  ]
}
